Legend:
Assay in all cases: Kinase panel, CaNDY 1 µM
Type in all cases: biochemical
Conditions in all cases: CaNDY 1 µM relative to DMSO
BRK = molecular target: T1, BRK (Homo sapiens, UniProt Q13882)
T1 construct: purchased Carna Biosciences
Procedure, shortened: (§1)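 Using an electrophoretic mobility shift format, activity of full-length GST-fusion human kinases was measured after a one-hour reaction at room temperature. Percent inhibition is relative to a control assay without compound, based on phosphorylated product fraction.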

FRK = molecular target: T2, FRK (Homo sapiens, UniProt P42685)
T2 construct: purchased Carna Biosciences
Procedure, shortened: as §1

MST3 = molecular target: T3, MST3 (Homo sapiens, UniProt Q9Y6E0)
T3 construct: purchased Carna Biosciences
Procedure, shortened: as §1

CDK2/CycE1 = molecular target: T4, CDK2/CycE1 (Homo sapiens, UniProt P24941)
T4 construct: purchased Carna Biosciences
Procedure, shortened: as §1

SGK = molecular target: T5, SGK (Homo sapiens, UniProt O00141)
T5 construct: purchased Carna Biosciences
Procedure, shortened: as §1

ITK = molecular target: T6, ITK (Homo sapiens, UniProt Q08881)
T6 construct: purchased Carna Biosciences
Procedure, shortened: as §1

NEK6 = molecular target: T7, NEK6 (Homo sapiens, UniProt Q9HC98)
T7 construct: purchased Carna Biosciences
Procedure, shortened: as §1

CK1δ = molecular target: T8, CK1δ (Homo sapiens, UniProt P48730)
T8 construct: purchased Carna Biosciences
Procedure, shortened: as §1

AXL = molecular target: T9, AXL (Homo sapiens, UniProt P30530)
T9 construct: purchased Carna Biosciences
Procedure, shortened: as §1

TSSK3 = molecular target: T10, TSSK3 (Homo sapiens, UniProt Q96PN8)
T10 construct: purchased Carna Biosciences
Procedure, shortened: as §1

AurA/TPX2 = molecular target: T11, AurA/TPX2 (Homo sapiens, UniProt O14965)
T11 construct: purchased Carna Biosciences
Procedure, shortened: as §1

skMLCK = molecular target: T12, skMLCK (Homo sapiens, UniProt Q9H1R3)
T12 construct: purchased Carna Biosciences
Procedure, shortened: as §1

SPHK2 = molecular target: T13, SPHK2 (Homo sapiens, UniProt Q9NRA0)
T13 construct: purchased Carna Biosciences
Procedure, shortened: as §1

HIPK4 = molecular target: T14, HIPK4 (Homo sapiens, UniProt Q8NE63)
T14 construct: purchased Carna Biosciences
Procedure, shortened: as §1

ROCK2 = molecular target: T15, ROCK2 (Homo sapiens, UniProt O75116)
T15 construct: purchased Carna Biosciences
Procedure, shortened: as §1

PKR = molecular target: T16, PKR (Homo sapiens, UniProt P19525)
T16 construct: purchased Carna Biosciences
Procedure, shortened: as §1

SPHK1 = molecular target: T17, SPHK1 (Homo sapiens, UniProt Q9NYA1)
T17 construct: purchased Carna Biosciences
Procedure, shortened: as §1

MAPKAPK5 = molecular target: T18, MAPKAPK5 (Homo sapiens, UniProt Q8IW41)
T18 construct: purchased Carna Biosciences
Procedure, shortened: as §1

JNK1 = molecular target: T19, JNK1 (Homo sapiens, UniProt P45983)
T19 construct: purchased Carna Biosciences
Procedure, shortened: as §1

EPHB1 = molecular target: T20, EPHB1 (Homo sapiens, UniProt P54762)
T20 construct: purchased Carna Biosciences
Procedure, shortened: as §1

PEK = molecular target: T21, PEK (Homo sapiens, UniProt Q9NZJ5)
T21 construct: purchased Carna Biosciences
Procedure, shortened: as §1

LOK = molecular target: T22, LOK (Homo sapiens, UniProt O94804)
T22 construct: purchased Carna Biosciences
Procedure, shortened: as §1

ALK(F1174L) = molecular target: T23, ALK(F1174L) (Homo sapiens, UniProt Q9UM73, F1174L)
T23 construct: purchased Carna Biosciences
Procedure, shortened: as §1

PDGFRα(V561D) = molecular target: T24, PDGFRα(V561D) (Homo sapiens, UniProt P16234, V561D)
T24 construct: purchased Carna Biosciences
Procedure, shortened: as §1

CDK4/CycD3 = molecular target: T25, CDK4/CycD3 (Homo sapiens, UniProt P11802)
T25 construct: purchased Carna Biosciences
Procedure, shortened: as §1

NDR1 = molecular target: T26, NDR1 (Homo sapiens, UniProt Q15208)
T26 construct: purchased Carna Biosciences
Procedure, shortened: as §1

DDR2 = molecular target: T27, DDR2 (Homo sapiens, UniProt Q16832)
T27 construct: purchased Carna Biosciences
Procedure, shortened: as §1

CK1γ3 = molecular target: T28, CK1γ3 (Homo sapiens, UniProt Q9Y6M4)
T28 construct: purchased Carna Biosciences
Procedure, shortened: as §1

EPHA2 = molecular target: T29, EPHA2 (Homo sapiens, UniProt P29317)
T29 construct: purchased Carna Biosciences
Procedure, shortened: as §1

EEF2K = molecular target: T30, EEF2K (Homo sapiens, UniProt O00418)
T30 construct: purchased Carna Biosciences
Procedure, shortened: as §1

FAK = molecular target: T31, FAK (Homo sapiens, UniProt Q05397)
T31 construct: purchased Carna Biosciences
Procedure, shortened: as §1

EGFR(L858R) = molecular target: T32, EGFR(L858R) (Homo sapiens, UniProt P00533, L858R)
T32 construct: purchased Carna Biosciences
Procedure, shortened: as §1

HER4 = molecular target: T33, HER4 (Homo sapiens, UniProt Q15303)
T33 construct: purchased Carna Biosciences
Procedure, shortened: as §1

TXK = molecular target: T34, TXK (Homo sapiens, UniProt P42681)
T34 construct: purchased Carna Biosciences
Procedure, shortened: as §1

LCK = molecular target: T35, LCK (Homo sapiens, UniProt P06239)
T35 construct: purchased Carna Biosciences
Procedure, shortened: as §1

CDK5/p25 = molecular target: T36, CDK5/p25 (Homo sapiens, UniProt Q00535)
T36 construct: purchased Carna Biosciences
Procedure, shortened: as §1

T11 sequence (O14965 whole entry): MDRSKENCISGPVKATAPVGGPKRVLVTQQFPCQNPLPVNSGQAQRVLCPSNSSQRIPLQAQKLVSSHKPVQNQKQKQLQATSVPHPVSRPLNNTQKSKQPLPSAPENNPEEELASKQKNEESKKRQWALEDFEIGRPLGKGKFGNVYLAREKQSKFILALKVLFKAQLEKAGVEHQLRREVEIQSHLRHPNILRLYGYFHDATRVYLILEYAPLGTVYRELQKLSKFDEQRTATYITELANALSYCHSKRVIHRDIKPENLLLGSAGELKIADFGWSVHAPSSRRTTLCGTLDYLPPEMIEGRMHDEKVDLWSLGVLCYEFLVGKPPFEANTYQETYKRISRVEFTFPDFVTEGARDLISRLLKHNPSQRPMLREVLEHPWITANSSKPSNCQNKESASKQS
T11 sequence (Q9ULW0 1-43 partner limits assumed): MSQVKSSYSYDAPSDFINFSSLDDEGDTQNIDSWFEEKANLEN
T35 sequence (P06239 whole entry): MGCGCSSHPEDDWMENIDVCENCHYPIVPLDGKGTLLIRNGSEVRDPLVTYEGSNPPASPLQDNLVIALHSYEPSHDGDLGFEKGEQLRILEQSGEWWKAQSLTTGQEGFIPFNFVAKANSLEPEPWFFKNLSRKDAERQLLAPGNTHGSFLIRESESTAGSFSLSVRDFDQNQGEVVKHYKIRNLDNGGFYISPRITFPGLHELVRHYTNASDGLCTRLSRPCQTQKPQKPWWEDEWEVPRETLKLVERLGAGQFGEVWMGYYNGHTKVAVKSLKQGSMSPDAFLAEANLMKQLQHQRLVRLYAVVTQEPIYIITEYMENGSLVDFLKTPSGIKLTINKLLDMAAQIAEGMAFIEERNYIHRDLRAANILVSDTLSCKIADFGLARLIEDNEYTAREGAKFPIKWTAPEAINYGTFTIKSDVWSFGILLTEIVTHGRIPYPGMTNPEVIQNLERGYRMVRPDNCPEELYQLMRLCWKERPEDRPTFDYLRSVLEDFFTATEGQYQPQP
T15 sequence (O75116 whole entry): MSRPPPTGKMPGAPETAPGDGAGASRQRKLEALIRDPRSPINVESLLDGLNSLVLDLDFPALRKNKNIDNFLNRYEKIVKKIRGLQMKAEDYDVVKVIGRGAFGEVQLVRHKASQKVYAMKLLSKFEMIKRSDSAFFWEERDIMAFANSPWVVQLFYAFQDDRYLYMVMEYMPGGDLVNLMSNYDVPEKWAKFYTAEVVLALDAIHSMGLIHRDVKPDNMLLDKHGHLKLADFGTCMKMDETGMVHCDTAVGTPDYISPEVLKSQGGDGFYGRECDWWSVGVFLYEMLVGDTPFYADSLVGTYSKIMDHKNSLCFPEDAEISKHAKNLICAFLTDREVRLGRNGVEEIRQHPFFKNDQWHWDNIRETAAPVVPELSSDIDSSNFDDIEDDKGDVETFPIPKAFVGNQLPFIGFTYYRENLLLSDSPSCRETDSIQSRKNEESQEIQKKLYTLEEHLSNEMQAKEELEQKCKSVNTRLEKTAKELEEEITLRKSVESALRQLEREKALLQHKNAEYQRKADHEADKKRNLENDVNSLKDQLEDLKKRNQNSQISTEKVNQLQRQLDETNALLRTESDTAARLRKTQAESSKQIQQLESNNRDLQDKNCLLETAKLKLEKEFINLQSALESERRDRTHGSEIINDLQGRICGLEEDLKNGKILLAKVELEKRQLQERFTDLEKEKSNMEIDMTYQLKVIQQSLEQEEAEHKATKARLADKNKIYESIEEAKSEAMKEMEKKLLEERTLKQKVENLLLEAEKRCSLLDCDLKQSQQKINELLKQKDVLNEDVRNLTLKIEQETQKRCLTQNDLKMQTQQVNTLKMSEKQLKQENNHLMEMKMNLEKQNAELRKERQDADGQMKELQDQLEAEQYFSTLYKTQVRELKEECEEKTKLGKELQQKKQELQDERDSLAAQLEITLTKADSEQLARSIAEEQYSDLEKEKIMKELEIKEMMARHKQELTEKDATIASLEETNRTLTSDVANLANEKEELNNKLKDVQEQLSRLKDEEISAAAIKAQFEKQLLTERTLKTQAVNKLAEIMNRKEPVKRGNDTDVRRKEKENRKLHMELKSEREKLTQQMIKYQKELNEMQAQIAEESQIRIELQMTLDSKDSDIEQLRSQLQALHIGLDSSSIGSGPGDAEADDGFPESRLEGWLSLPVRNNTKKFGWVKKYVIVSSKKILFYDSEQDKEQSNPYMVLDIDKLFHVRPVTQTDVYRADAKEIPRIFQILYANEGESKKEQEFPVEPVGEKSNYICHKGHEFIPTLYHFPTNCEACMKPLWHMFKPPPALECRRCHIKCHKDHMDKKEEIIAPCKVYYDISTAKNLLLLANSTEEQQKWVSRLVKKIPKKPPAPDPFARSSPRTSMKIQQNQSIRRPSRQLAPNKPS
T36 sequence (Q00535 whole entry): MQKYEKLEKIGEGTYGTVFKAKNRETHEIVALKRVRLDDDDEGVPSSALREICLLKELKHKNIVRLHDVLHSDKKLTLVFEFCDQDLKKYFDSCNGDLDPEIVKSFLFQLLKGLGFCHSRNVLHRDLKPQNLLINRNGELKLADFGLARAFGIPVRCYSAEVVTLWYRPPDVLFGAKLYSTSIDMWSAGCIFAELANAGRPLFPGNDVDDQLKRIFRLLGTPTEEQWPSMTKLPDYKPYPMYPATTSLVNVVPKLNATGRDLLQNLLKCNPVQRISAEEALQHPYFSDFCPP
T36 sequence (Q15078 99-307 partner limits assumed): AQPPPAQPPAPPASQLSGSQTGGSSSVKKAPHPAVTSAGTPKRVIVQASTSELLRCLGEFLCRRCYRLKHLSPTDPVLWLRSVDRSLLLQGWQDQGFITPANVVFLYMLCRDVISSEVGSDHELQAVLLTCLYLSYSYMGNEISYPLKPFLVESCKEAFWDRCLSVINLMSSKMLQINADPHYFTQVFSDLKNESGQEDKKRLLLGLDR
T30 sequence (O00418 whole entry): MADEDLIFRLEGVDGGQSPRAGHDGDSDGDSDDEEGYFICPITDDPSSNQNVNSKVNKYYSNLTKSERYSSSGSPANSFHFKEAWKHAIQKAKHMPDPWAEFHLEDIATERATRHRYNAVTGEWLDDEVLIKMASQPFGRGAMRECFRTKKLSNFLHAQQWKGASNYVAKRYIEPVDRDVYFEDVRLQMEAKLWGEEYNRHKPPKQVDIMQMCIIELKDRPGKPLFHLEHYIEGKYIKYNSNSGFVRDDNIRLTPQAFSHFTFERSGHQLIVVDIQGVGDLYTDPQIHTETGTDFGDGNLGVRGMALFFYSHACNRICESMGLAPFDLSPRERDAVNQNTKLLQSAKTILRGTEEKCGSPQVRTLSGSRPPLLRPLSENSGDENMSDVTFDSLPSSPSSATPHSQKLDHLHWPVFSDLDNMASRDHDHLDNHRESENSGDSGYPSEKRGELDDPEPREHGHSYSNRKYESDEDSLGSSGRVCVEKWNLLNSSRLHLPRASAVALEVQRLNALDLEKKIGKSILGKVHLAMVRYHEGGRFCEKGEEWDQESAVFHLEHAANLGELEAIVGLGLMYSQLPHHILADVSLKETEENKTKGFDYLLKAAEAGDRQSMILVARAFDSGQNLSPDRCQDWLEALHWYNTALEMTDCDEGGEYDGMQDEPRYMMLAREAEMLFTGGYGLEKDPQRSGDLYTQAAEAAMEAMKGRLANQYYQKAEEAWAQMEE
T18 sequence (Q8IW41 whole entry): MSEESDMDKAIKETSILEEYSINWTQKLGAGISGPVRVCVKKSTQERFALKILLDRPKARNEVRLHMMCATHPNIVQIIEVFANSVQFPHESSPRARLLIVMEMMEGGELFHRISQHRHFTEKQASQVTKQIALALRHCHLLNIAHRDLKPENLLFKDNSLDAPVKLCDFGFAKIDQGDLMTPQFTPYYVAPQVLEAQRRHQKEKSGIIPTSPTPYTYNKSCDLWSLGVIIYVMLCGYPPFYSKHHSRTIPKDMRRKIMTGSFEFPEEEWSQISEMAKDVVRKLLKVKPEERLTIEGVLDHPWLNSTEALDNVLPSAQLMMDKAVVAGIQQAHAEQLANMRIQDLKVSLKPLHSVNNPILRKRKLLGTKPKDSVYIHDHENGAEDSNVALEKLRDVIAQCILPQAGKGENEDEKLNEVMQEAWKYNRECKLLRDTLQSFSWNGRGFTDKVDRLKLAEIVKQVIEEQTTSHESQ
T10 sequence (Q96PN8 whole entry): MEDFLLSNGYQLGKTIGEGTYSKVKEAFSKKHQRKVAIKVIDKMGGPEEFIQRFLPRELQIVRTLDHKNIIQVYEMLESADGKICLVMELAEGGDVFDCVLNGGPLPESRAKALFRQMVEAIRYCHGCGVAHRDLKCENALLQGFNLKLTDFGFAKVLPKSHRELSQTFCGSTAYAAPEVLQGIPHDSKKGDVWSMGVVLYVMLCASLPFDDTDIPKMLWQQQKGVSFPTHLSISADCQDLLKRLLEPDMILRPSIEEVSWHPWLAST
T2 sequence (P42685 whole entry): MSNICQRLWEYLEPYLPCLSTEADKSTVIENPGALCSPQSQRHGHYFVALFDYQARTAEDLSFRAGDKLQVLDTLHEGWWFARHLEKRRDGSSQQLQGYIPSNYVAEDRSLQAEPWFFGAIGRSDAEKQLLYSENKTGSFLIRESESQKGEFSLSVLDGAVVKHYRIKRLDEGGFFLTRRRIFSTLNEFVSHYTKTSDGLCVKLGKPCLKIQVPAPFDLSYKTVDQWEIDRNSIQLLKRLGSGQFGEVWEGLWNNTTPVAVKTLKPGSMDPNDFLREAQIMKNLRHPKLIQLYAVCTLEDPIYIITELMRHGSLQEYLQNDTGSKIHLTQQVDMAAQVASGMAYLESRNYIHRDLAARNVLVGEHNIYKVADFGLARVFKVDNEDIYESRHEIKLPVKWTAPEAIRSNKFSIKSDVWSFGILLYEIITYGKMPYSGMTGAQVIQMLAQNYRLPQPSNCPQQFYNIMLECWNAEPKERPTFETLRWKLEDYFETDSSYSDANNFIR

In the case of `[H]/N=C1/NC(=O)C(=Cc2ccc3c(c2)CCO3)S1` [CaNDY, (Z)-5-[(2,3-dihydrobenzofuran-5-yl)methylene]-2-iminothiazolidin-4-one], the remaining activity at 1 µM (BRK) was 95.4%, the remaining activity at 1 µM (FRK) was 102% and the “%Activity” value (MST3) was 100.2%. The “%Activity” value (CDK2/CycE1) was 87.5%, the remaining activity at 1 µM (SGK) was 93.6% and the “%Activity” value (ITK) was 99.9%. For the same molecule, the remaining activity at 1 µM (NEK6) was 96.1%, the remaining activity at 1 µM (CK1δ) was 67.9% and the remaining activity at 1 µM (AXL) was 103%. It also gave a remaining activity at 1 µM (TSSK3) of 110%, a remaining activity at 1 µM (AurA/TPX2) of 98.8% and a remaining activity at 1 µM (skMLCK) of 96.2%. It also gave a remaining activity at 1 µM (SPHK2) of 92.3%, a remaining activity at 1 µM (HIPK4) of 78.2% and a remaining activity at 1 µM (ROCK2) of 103%. For the same molecule, the “%Activity” value (PKR) was 95.4%, the remaining activity at 1 µM (SPHK1) was 83.5% and the remaining activity at 1 µM (MAPKAPK5) was 95.5%. For the same molecule, the “%Activity” value (JNK1) was 102.4%, the remaining activity at 1 µM (EPHB1) was 95.3% and the remaining activity at 1 µM (PEK) was 90.4%. The “%Activity” value (LOK) was 106.3%, the remaining activity at 1 µM (ALK(F1174L)) was 97.9% and the remaining activity at 1 µM (PDGFRα(V561D)) was 90.3%. The remaining activity at 1 µM (CDK4/CycD3) was 86.4%, the remaining activity at 1 µM (NDR1) was 91.8% and the remaining activity at 1 µM (DDR2) was 101%. The “%Activity” value (CK1γ3) was 79.0%, the remaining activity at 1 µM (EPHA2) was 100% and the remaining activity at 1 µM (EEF2K) was 97.2%. The remaining activity at 1 µM (FAK) was 98.5%, the “%Activity” value (EGFR(L858R)) was 105.7% and the remaining activity at 1 µM (HER4) was 111%. It also gave a remaining activity at 1 µM (TXK) of 96.8%, a remaining activity at 1 µM (LCK) of 99% and a remaining activity at 1 µM (CDK5/p25) of 88.5%.

Reference: paper PMC4522657, “Identification of a DYRK1A Inhibitor that Induces Degradation of the Target Kinase using Co-chaperone CDC37 fused with Luciferase nanoKAZ” (Scientific Reports, 2015)
